This is an account of results in patent US20130085105A1, “Transdermal Administration Of Peptides” (The Provost, Fellows and Scholars of the College of Holy …, priority 2010, published 2013).

The nature of data set [1]: In vitro transdermal permeation, diffusion cell, hairless mouse skin. The format is in vitro ADME, hairless mice. The text has this:
The abdominal skin from male hairless mice (mice of the HRS strain carrying a mutant Hr gene (hr/hr)) aged 6-8 weeks was cleaned of any subcutaneous fat with blood vessels while maintaining the integrity of the viable epidermis and SC. The excised skin was used immediately after preparation and was not stored prior to use.
A custom made finite dosing diffusion cell (AGB Scientific, Dublin, Ireland, FIG. 1) based upon and modified from the Keshary-Chien type diffusion cell was used for in vitro permeation studies.
Three to five diffusion cells were used in each permeation experiment and monitoring was performed over a 48 hour period. The cells were linked in series to a thermostatically controlled circulation bath set at 35° C. to mimic human skin surface temperature. Each cell was placed on a stir-plate set at a defined stirring rate of 1,000 rpm. The surface area for permeation provided by each cell was 3.14 cm^2.
Data collected from each permeation study included:
1) the average maximum flux obtained in 48 hours (Jmax),
2) the total absorption characterized as the total weight of peptide delivered transdermally into the receiver compartment over a 48 hour period,
3) the lag time to detectable flux which was equivalent to the latest sampling time at which no peptide was detectable by HPLC analysis of the receiver solution, and
4) an equivalent 48-hour steady state flux was determined by obtaining the slope of the best-fit line for a plot of cumulative flux per unit area versus time (described by McDaid, D. M. et al., Int. J. Pharm., 133:71-83, 1996).
Fresh hairless mouse skin samples or fresh or freshly thawed pig skin samples were mounted onto the diffusion cell with the SC topmost and in contact with the donor system. A rubber or plastic ring was placed on top of the skin sample to secure it in position. The combination of the diffusion cell top, the skin and the rubber ring was securely fastened together by means of a threaded cap. A recorded volume of receiver solution was added to the receiver compartment and maintained at 35° C. The receiver solution was 60/40 (v/v) PBS/propylene glycol (pH 7.1). The propylene glycol fraction was used to increase the solubility of the somatostatin-fatty acid salts. Previous work reported by Morgan et al. (J. Pharm. Sci., 87:1213-1218, 1998) has shown that a 50/50 water/propylene glycol receptor solution had no detrimental effect on the barrier integrity of both hairless mouse and porcine skin.
The receiver solution was allowed to equilibrate at 35° C. for 30 minutes. […] A narrow-bore hypodermic needle was used to withdraw 1 ml samples from the receiver compartment via the sampling port; at each sampling time, an equal volume of drug-free receiver solution was immediately added back to the receiver compartment. Samples were analyzed by HPLC.
HPLC determination of peptide content in the receiver solution along with the known surface area of skin used (3.14 cm^2) allowed for calculation of transdermal flux (in units of μg/cm^2/hr) for each time point. Panels 1 and 2 of FIG. 2 show flux […] profiles for the myristate, octanoate, decanoate, linoleate, nonanote, acetate and laurate […]
Once lead candidate somatostatin-fatty acid salts had been selected on the basis of in vitro permeation in a DMSO solution, the effect of different solvents and penetration enhancers on permeation was assessed. The concentration of the donor solution corresponded to 5 mg/ml free base peptide for all experiments and all donor solutions were equilibrated at 37° C. for one hour prior to use. These experiments were carried out using hairless mouse skin and pigskin barriers.

Data set [2] in a line: Partition coefficients n-octanol/deionized water and n-octanol/PBS. Particulars: 24 hours; for Log KOPBS / O/PBS Coefficient (KOPBS): n-octanol/PBS pH 7.4, 37° C.; for Log KOW / O/W Coefficient (KOW): n-octanol/deionized water, 37° C. The format is physicochemical. As to the method:
The partition coefficients for all somatostatin-fatty acid salts in either n-octanol/deionized water or n-octanol/PBS (pH 7.4) were determined. The partition coefficient is the concentration of Compound A or Compound B in the n-octanol phase divided by the concentration in the aqueous or PBS phase.
An accurately weighed sample of each salt was placed into 4 ml HPLC vials sealed with caps containing pierceable silicone septa and dissolved in 2 ml n-octanol. Two ml of either deionized water or PBS were added to each sample; the vials were vortexed vigorously and incubated at 37° C. with agitation for 24 hours in a shaker-incubator at 400 rpm.
Following incubation, two samples were withdrawn from each vial. Once the layers had fully partitioned, a syringe was used to draw a sample of the aqueous phase or the n-octanol phase. Samples from each phase were diluted appropriately with deionized or methanol prior to HPLC analysis.

Where [3] appears, read: 4.3 mg/ml in DMSO +1% (v/v) oleic acid.
The mark [4] stands for this setting: donor DMSO, approx. 5 mg/ml free base peptide (4.9 mg/ml Compound A oleate, 5.2 mg/ml Compound A acetate).
The mark [5] stands for this setting: donor DMSO, approx. 5 mg/ml free base peptide (4.9 mg/ml Compound A oleate, 5.2 mg/ml Compound A acetate), 48 hr.

For the molecule `CC(C)[C@@H]1NC(=O)[C@H](CCCCN)NC(=O)[C@@H](Cc2c[nH]c3ccccc23)NC(=O)[C@H](Cc2ccc(O)cc2)NC(=O)[C@@H](NC(=O)[C@H](N)Cc2ccc3ccccc3c2)CSSC[C@@H](C(=O)N[C@H](C(N)=O)[C@@H](C)O)NC1=O` [Compound A di-acetate, D-2-Nal-c(Cys-Tyr-D-Trp-Lys-Val-Cys)-Thr-NH2, reference compound], in data set [1] (setting [3]), the Jmax came out at 53.576 μg/cm^2/hr, the Jss was found to be 1.873 μg/cm^2/hr, the “Lag Time” value was found to be 0.0 h and the “Total Absorption” value is on record as 387.78 μg/48 hr. Moreover, the “effect of 1% (v/v) free oleic acid on flux” value in data set [1] (donor DMSO) is “increase of flux”. In addition, in data set [1] (setting [4]), the “Lag Time” value worked out at 29.5 h and the “Total Absorption” value worked out at 48.08 μg/48 hr. Moreover, in data set [1] (setting [5]), the Jmax is recorded as 0.320 μg/cm^2/hr and the Jss was 0.240 μg/cm^2/hr.
“D-2-Nal-c(Cys-Tyr-D-Trp-Lys-Val-Cys)-Thr-NH2 [Compound A di-decanoate]”: in data set [2], the “Log KOPBS” value stood at 0.844, the “O/PBS Coefficient (KOPBS)” value was 6.99, the “Log KOW” value came out at 2.325 and the “O/W Coefficient (KOW)” value was 211.53.
For “D-2-Nal-c(Cys-Tyr-D-Trp-Lys-Val-Cys)-Thr-NH2 [Compound A di-laurate]” the same measures were 0.854, 7.15, 2.943 and 876.40.
For “D-2-Nal-c(Cys-Tyr-D-Trp-Lys-Val-Cys)-Thr-NH2 [Compound A di-linoleate]”, in that order: 0.866, 7.35, 1.917 and 82.52.
For “D-2-Nal-c(Cys-Tyr-D-Trp-Lys-Val-Cys)-Thr-NH2 [Compound A di-myristate]” the same measures were 0.806, 6.40, 2.610 and 407.50.
In the case of “D-2-Nal-c(Cys-Tyr-D-Trp-Lys-Val-Cys)-Thr-NH2 [Compound A di-nonanoate]”, in data set [2], the “Log KOPBS” value is given as 0.811, the “O/PBS Coefficient (KOPBS)” value is on record as 6.47, the “Log KOW” value stood at 2.723 and the “O/W Coefficient (KOW)” value came to 528.50.
For “D-2-Nal-c(Cys-Tyr-D-Trp-Lys-Val-Cys)-Thr-NH2 [Compound A di-octanoate]” the same measures were 0.827, 6.71, 2.794 and 622.86.
Turning to “[4-(2-hydroxyethyl)]-1-piperazinylacetyl-D-Phe-c(Cys-Tyr-D-Trp-Lys-Abu-Cys)-Thr-NH2 [Compound B di-acetate]”, in data set [2], the “Log KOPBS” value is reported as −2.000, the “O/PBS Coefficient (KOPBS)” value stood at 0.01, the “Log KOW” value is −2.000 and the “O/W Coefficient (KOW)” value is 0.01.
